Like-named read-outs stand apart in the source and are kept apart here.
Assays:
Assay in all cases: Test B pre-/postemergence plant response
Assay type in all cases: in vivo
[1] = system: goosegrass (Eleusine indica); settings: Preemergence, 250 g ai/ha; 0 to 100 scale
Outline: (§1)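 Visual injury, 0–100 scale (100 = complete control), rated against controls after 13 to 15 days in greenhouse. Pre-emergence: seeds in loam/sand soil, treated at planting. Post-emergence: 1- to 4-leaf plants (2 to 18 cm) in peat/vermiculite medium. Compounds formulated in non-phytotoxic solvent with surfactant.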

[2] = system: kochia (Kochia scoparia); settings: for pest or weed control at 31 g/ha: 31 g ai/ha; for pest or weed control at 125 g/ha: 125 g ai/ha
Outline: as §1

[3] = system: blackgrass (Alopecurus myosuroides); settings: for pest or weed control at 31 g/ha: 31 g ai/ha; for pest or weed control at 125 g/ha: 125 g ai/ha
Outline: as §1

[4] = system: wild oat (Avena fatua); settings: for pest or weed control at 31 g/ha: 31 g ai/ha; for pest or weed control at 125 g/ha: 125 g ai/ha
Outline: as §1

[5] = system: large crabgrass (Digitaria sanguinalis); settings: for pest or weed control at 31 g/ha: 31 g ai/ha; for pest or weed control at 125 g/ha: 125 g ai/ha
Outline: as §1

[6] = system: ragweed (common ragweed, Ambrosia elatior); settings: postemergence, 100 is complete control
Outline: as §1

[7] = 62 g ai/ha, postemergence, 0 is no effect, 100 is complete control, 13 to 15 days
[8] = Preemergence, 250 g ai/ha, 0 to 100 scale

## COCCCn1c(-c2ccccc2)ncc(C(=O)C2=C(O)CCCC2=O)c1=O [Compound 81, 5-[(2-hydroxy-6-oxo-cyclohexen-1-yl)carbonyl]-3-(3-methoxypropyl)-2-phenyl-4(3H)-pyrimidinone]
[1]
  Goosegrass plant response rating: 100
[2]; [7]
  Kochia plant response rating (0 to 100 scale): 80
[2]; Bassia scoparia, post-emergence, postemergence, scale 0 to 100, 0 is no effect, 100 is complete control, read-out: Plant response rating, Kochia
  pest or weed control at 31 g/ha: 75%
[2]; Bassia scoparia, post-emergence, Postemergence, visual rating after 13 to 15 days, scale 0 (no effect) to 100 (complete control)
  pest or weed control at 125 g/ha: 90%
[2]; Bassia scoparia, post-emergence, Postemergence, 250 g ai/ha, scale 0 to 100 (0 no effect, 100 complete control), read-out: Plant response rating, Kochia
  pest or weed control at 250 g/ha: 100%
[2]; Bassia scoparia, pre-emergence, Preemergence, scale 0 to 100 (0 no effect, 100 complete control), read-out: Plant response rating, Kochia
  pest or weed control at 31 g/ha: 45%
[2]; Bassia scoparia, pre-emergence, Preemergence, 62 g ai/ha, scale 0 to 100 (0 no effect, 100 complete control), read-out: Plant response rating, Kochia
  pest or weed control at 62 g/ha: 55%
[2]; Bassia scoparia, pre-emergence, Preemergence, scale 0 to 100, 0 no effect, 100 complete control, read-out: Plant response rating, Kochia
  pest or weed control at 125 g/ha: 65%
[2]; [8]
  Kochia plant response rating: 70
[3]; [7]
  Blackgrass plant response rating (0 to 100 scale): 10
[3]; Alopecurus myosuroides, post-emergence, 360 h, postemergence, scale 0 to 100, 0 is no effect, 100 is complete control, read-out: Plant response rating, Blackgrass
  pest or weed control at 31 g/ha: 5%
[3]; Alopecurus myosuroides, post-emergence, 360 h, Postemergence, visual rating after 13 to 15 days, scale 0 (no effect) to 100 (complete control)
  pest or weed control at 125 g/ha: 30%
[3]; Alopecurus myosuroides, post-emergence, 360 h, Postemergence, 250 g ai/ha, scale 0 to 100 (0 no effect, 100 complete control), read-out: Plant response rating, Blackgrass
  pest or weed control at 250 g/ha: 30%
[3]; Alopecurus myosuroides, pre-emergence, 360 h, Preemergence, scale 0 to 100 (0 no effect, 100 complete control), read-out: Plant response rating, Blackgrass
  pest or weed control at 31 g/ha: 0%
[3]; Alopecurus myosuroides, pre-emergence, 360 h, Preemergence, 62 g ai/ha, scale 0 to 100, 0 no effect, 100 complete control, read-out: Plant response rating, Blackgrass
  pest or weed control at 62 g/ha: 0%
[3]; Alopecurus myosuroides, pre-emergence, 360 h, Preemergence, scale 0 to 100, 0 no effect, 100 complete control, read-out: Plant response rating, Blackgrass
  pest or weed control at 125 g/ha: 35%
[3]; [8]
  Blackgrass plant response rating: 35
[4]; [7]
  Oat, Wild plant response rating (0 to 100 scale): 35
[4]; Avena fatua, post-emergence, postemergence, scale 0 to 100, 0 is no effect, 100 is complete control, read-out: Plant response rating, Oat, Wild
  pest or weed control at 31 g/ha: 25%
[4]; Avena fatua, post-emergence, Postemergence, visual rating after 13 to 15 days, scale 0 (no effect) to 100 (complete control)
  pest or weed control at 125 g/ha: 50%
[4]; Avena fatua, post-emergence, Postemergence, 250 g ai/ha, scale 0 to 100 (0 no effect, 100 complete control), read-out: Plant response rating, Oat, Wild
  pest or weed control at 250 g/ha: 55%
[4]; Avena fatua, pre-emergence, Preemergence, scale 0 to 100 (0 no effect, 100 complete control), read-out: Plant response rating, Oat, Wild
  pest or weed control at 31 g/ha: 0%
[4]; Avena fatua, pre-emergence, Preemergence, 62 g ai/ha, scale 0 to 100 (0 no effect, 100 complete control), read-out: Plant response rating, Oat, Wild
  pest or weed control at 62 g/ha: 0%
[4]; Avena fatua, pre-emergence, Preemergence, scale 0 to 100, 0 no effect, 100 complete control, read-out: Plant response rating, Oat, Wild
  pest or weed control at 125 g/ha: 0%
[4]; [8]
  Oat, Wild plant response rating: 0
[5]; [7]
  Crabgrass, Large plant response rating (0 to 100 scale): 95
[5]; Digitaria sanguinalis, post-emergence, postemergence, scale 0 to 100, 0 is no effect, 100 is complete control, read-out: Plant response rating, Crabgrass, Large
  pest or weed control at 31 g/ha: 85%
[5]; Digitaria sanguinalis, post-emergence, Postemergence, visual rating after 13 to 15 days, scale 0 (no effect) to 100 (complete control)
  pest or weed control at 125 g/ha: 95%
[5]; Digitaria sanguinalis, post-emergence, Postemergence, 250 g ai/ha, scale 0 to 100 (0 no effect, 100 complete control), read-out: Plant response rating, Crabgrass, Large
  pest or weed control at 250 g/ha: 98%
[5]; Digitaria sanguinalis, pre-emergence, Preemergence, scale 0 to 100 (0 no effect, 100 complete control), read-out: Plant response rating, Crabgrass, Large
  pest or weed control at 31 g/ha: 100%
[5]; Digitaria sanguinalis, pre-emergence, Preemergence, 62 g ai/ha, scale 0 to 100, 0 no effect, 100 complete control, read-out: Plant response rating, Crabgrass, Large
  pest or weed control at 62 g/ha: 100%
[5]; Digitaria sanguinalis, pre-emergence, Preemergence, scale 0 to 100, 0 no effect, 100 complete control, read-out: Plant response rating, Crabgrass, Large
  pest or weed control at 125 g/ha: 100%
[5]; [8]
  Crabgrass, Large plant response rating: 100
[6]; 62 g ai/ha, 0 is no effect, 13 to 15 days
  Ragweed plant response rating (0 to 100 scale): 80
[6]; Ambrosia artemisiifolia, post-emergence, 360 h, 31 g ai/ha, scale 0 to 100, 0 is no effect, read-out: Plant response rating, Ragweed
  pest or weed control at 31 g/ha: 75%
